Patent US12331026B2 (NiKang Therapeutics, Inc., priority 2022, dated 2025)

Target: T1, CDK2 (Homo sapiens, UniProt P24941)
T1 construct: endogenous in cells; host or cells: OVCAR3 cells
Assay: Phospho-RB measurement in OVCAR3 cells (HTRF phospho-RB S807/811)
Type: cell-based
Conditions: phosphorylation of RB protein at S807/811, HTRF, 24 h compound treatment, 0.3 to 10,000 nM, read-out: pRb (uM)
Method in brief: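 IC50 values come from four-parameter logistic fits of the DMSO-normalised 665/620 nm TR-FRET ratio for phospho-RB (S807/811). Antibody detection ran 4 h at room temperature.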

Row | Compound | IC50 [µM]
1 | C[C@H]1COC[C@H](C)N1c1nc(-c2cccc(NS(=O)(=O)c3c(F)cccc3C(F)(F)F)c2F)c(-c2ccnc(N[C@H]3[C@@H]4CS(=O)(=O)C[C@@H]43)n2)s1 [Example 114, N-(3-(2-((3S,5S)-3,5-dimethylmorpholino)-5-(2-(((1R,5S,6r)-3,3-dioxido-3-thiabicyclo[3.1.0]hexan-6-yl)amino)pyrimidin-4-yl)thiazol-4-yl)-2-fluorophenyl)-2-fluoro-6-(trifluoromethyl)benzenesulfonamide] | 0.3
2 | O=S1(=O)C[C@@H]2[C@H](C1)[C@H]2Nc1nccc(-c2sc(C34CCC(CC3)CC4)nc2-c2cccc(NS(=O)(=O)c3c(F)cccc3F)c2F)n1 [Example 116, N-(3-(2-(bicyclo[2.2.2]octan-1-yl)-5-(2-(((1R,5S,6r)-3,3-dioxido-3-thiabicyclo[3.1.0]hexan-6-yl)amino)pyrimidin-4-yl)thiazol-4-yl)-2-fluorophenyl)-2,6-difluorobenzenesulfonamide] | 0.09
3 | CS(=O)(=O)C1CCC(Nc2nccc(-c3sc(C45CC(C(F)(F)F)(C4)C5)nc3-c3cccc(NS(=O)(=O)c4c(Cl)cccc4C(F)(F)F)c3F)n2)CC1 (stereo not shown) [Example 118, 2-chloro-N-(2-fluoro-3-(5-(2-(((1s,4s)-4-(methylsulfonyl)-cyclohexyl)amino)pyrimidin-4-yl)-2-(3-(trifluoromethyl)bicyclo-[1.1.1]pentan-1-yl)thiazol-4-yl)phenyl)-6-(trifluoromethyl)-benzenesulfonamide] | 0.73
4 | O=S1(=O)C[C@@H]2[C@H](C1)[C@@H]2Nc1nccc(-c2sc(C34CCC(CC3)CC4)nc2-c2cccc(NS(=O)(=O)c3c(F)cccc3F)c2F)n1 [Example 119, N-(3-(2-(bicyclo[2.2.2]octan-1-yl)-5-(2-(((1R,5S,6s)-3,3-dioxido-3-thiabicyclo[3.1.0]hexan-6-yl)amino)pyrimidin-4-yl)thiazol-4-yl)-2-fluorophenyl)-2,6-difluorobenzenesulfonamide] | 1.34
5 | CC1(C)CCN1c1nc(-c2cccc(NS(=O)(=O)c3c(F)cccc3C(F)(F)F)c2F)c(-c2ccnc(N[C@@H]3[C@@H]4CS(=O)(=O)C[C@@H]43)n2)s1 [Example 120, N-(3-(2-(2,2-dimethylazetidin-1-yl)-5-(2-(((1R,5S,6s)-3,3-dioxido-3-thiabicyclo[3.1.0]hexan-6-yl)amino)pyrimidin-4-yl)thiazol-4-yl)-2-fluorophenyl)-2-fluoro-6-(trifluoromethyl)benzenesulfonamide] | 0.29
6 | O=S1(=O)C[C@@H]2[C@H](C1)[C@H]2Nc1nccc(-c2sc(N3C4CCC3CN(C3CC(F)(F)C3)C4)nc2-c2cccc(NS(=O)(=O)c3c(F)cccc3OC(F)F)c2F)n1 [Example 123, N-(3-(2-(3-(3,3-difluorocyclobutyl)-3,8-diazabicyclo[3.2.1]octan-8-yl)-5-(2-(((1R,5S,6r)-3,3-dioxido-3-thiabicyclo[3.1.0]hexan-6-yl)amino)pyrimidin-4-yl)thiazol-4-yl)-2-fluorophenyl)-2-(difluoromethoxy)-6-fluorobenzenesulfonamide] | 0.17
7 | O=S1(=O)C[C@@H]2[C@H](C1)[C@H]2Nc1nccc(-c2sc(C34CC(C3)C4)nc2-c2cccc(NS(=O)(=O)c3c(OC(F)F)cccc3C(F)(F)F)c2F)n1 [Example 125, N-(3-(2-(bicyclo[1.1.1]pentan-1-yl)-5-(2-(((1R,5S,6r)-3,3-dioxido-3-thiabicyclo[3.1.0]hexan-6-yl)amino)pyrimidin-4-yl)thiazol-4-yl)-2-fluorophenyl)-2-(difluoromethoxy)-6-(trifluoromethyl)-benzenesulfonamide] | 4.51
8 | O=S1(=O)C[C@@H]2[C@H](C1)[C@H]2Nc1nccc(-c2sc(C3(C(F)F)CC3)nc2-c2cccc(NS(=O)(=O)c3c(F)cccc3OC(F)F)c2F)n1 [Example 129, 2-(difluoromethoxy)-N-(3-(2-(1-(difluoromethyl)cyclopropyl)-5-(2-(((1R,5S,6r)-3,3-dioxido-3-thiabicyclo[3.1.0]hexan-6-yl)amino)-pyrimidin-4-yl)thiazol-4-yl)-2-fluorophenyl)-6-fluorobenzene-sulfonamide] | 0.09
9 | O=S1(=O)C[C@@H]2[C@H](C1)[C@H]2Nc1nccc(-c2sc(N3C4CCC3CN(C3CC3)C4)nc2-c2cccc(NS(=O)(=O)c3c(F)cccc3C(F)(F)F)c2F)n1 [Example 130, N-(3-(2-(3-cyclopropyl-3,8-diazabicyclo[3.2.1]octan-8-yl)-5-(2-(((1R,5S,6r)-3,3-dioxido-3-thiabicyclo[3.1.0]hexan-6-yl)amino)-pyrimidin-4-yl)thiazol-4-yl)-2-fluorophenyl)-2-fluoro-6-(trifluoromethyl)benzenesulfonamide] | 0.45

Continued by falling IC50, values first:

Row | IC50 [µM] | Compound
10 | 0.09 | O=S1(=O)C[C@@H]2[C@H](C1)[C@H]2Nc1nccc(-c2sc(N3C4CCC3CN(C3CC(F)(F)C3)C4)nc2-c2cccc(NS(=O)(=O)c3c(F)cccc3C(F)(F)F)c2F)n1 [Example 109, N-(3-(2-(3-(3,3-difluorocyclobutyl)-3,8-diazabicyclo[3.2.1]octan-8-yl)-5-(2-(((1R,5S,6r)-3,3-dioxido-3-thiabicyclo[3.1.0]hexan-6-yl)amino)pyrimidin-4-yl)thiazol-4-yl)-2-fluorophenyl)-2-fluoro-6-(trifluoromethyl)benzenesulfonamide]
11 | 0.08 | CN1CC2CCC(C1)N2c1nc(-c2cccc(NS(=O)(=O)c3c(F)cccc3C(F)(F)F)c2F)c(-c2ccnc(NC3[C@H]4CS(=O)(=O)C[C@@H]34)n2)s1 (stereo partly drawn) [Example 111, N-(3-(5-(2-(((1R,5S,6s)-3,3-dioxido-3-thiabicyclo[3.1.0]hexan-6-yl)amino)pyrimidin-4-yl)-2-(3-methyl-3,8-diazabicyclo[3.2.1]octan-8-yl)thiazol-4-yl)-2-fluorophenyl)-2-fluoro-6-(trifluoromethyl)benzenesulfonamide]
12 | 0.07 | O=S1(=O)C[C@@H]2[C@H](C1)[C@H]2Nc1nccc(-c2sc(C34CC(C3)C4)nc2-c2cccc(NS(=O)(=O)c3c(F)cccc3OC(F)F)c2F)n1 [Example 113, N-(3-(2-(bicyclo[1.1.1]pentan-1-yl)-5-(2-(((1R,5S,6r)-3,3-dioxido-3-thiabicyclo[3.1.0]hexan-6-yl)amino)pyrimidin-4-yl)thiazol-4-yl)-2-fluorophenyl)-2-(difluoromethoxy)-6-fluorobenzenesulfonamide]
13 | 0.06 | O=S1(=O)C[C@@H]2[C@H](C1)[C@H]2Nc1nccc(-c2sc(N3C4CCC3CN(C3CC3)C4)nc2-c2cccc(NS(=O)(=O)c3c(F)cccc3F)c2F)n1 [Example 127, N-(3-(2-(3-cyclopropyl-3,8-diazabicyclo[3.2.1]octan-8-yl)-5-(2-(((1R,5S,6r)-3,3-dioxido-3-thiabicyclo[3.1.0]hexan-6-yl)amino)-pyrimidin-4-yl)thiazol-4-yl)-2-fluorophenyl)-2,6-difluorobenzene-sulfonamide]
14 | 0.05 | O=S1(=O)C[C@@H]2[C@H](C1)[C@H]2Nc1nccc(-c2sc(N3C4CCC3CC(F)(F)C4)nc2-c2cccc(NS(=O)(=O)c3c(F)cccc3F)c2F)n1 [Example 115, N-(3-(2-(3,3-difluoro-8-azabicyclo[3.2.1]octan-8-yl)-5-(2-(((1R,5S,6r)-3,3-dioxido-3-thiabicyclo[3.1.0]hexan-6-yl)amino)pyrimidin-4-yl)thiazol-4-yl)-2-fluorophenyl)-2,6-difluorobenzenesulfonamide]
15 | 0.05 | CC1(C)CCN1c1nc(-c2cccc(NS(=O)(=O)c3c(F)cccc3C(F)(F)F)c2F)c(-c2ccnc(N[C@H]3[C@@H]4CS(=O)(=O)C[C@@H]43)n2)s1 [Example 121, N-(3-(2-(2,2-dimethylazetidin-1-yl)-5-(2-(((1R,5S,6r)-3,3-dioxido-3-thiabicyclo[3.1.0]hexan-6-yl)amino)pyrimidin-4-yl)thiazol-4-yl)-2-fluorophenyl)-2-fluoro-6-(trifluoromethyl)benzenesulfonamide]
16 | 0.05 | O=S1(=O)C[C@@H]2[C@H](C1)[C@H]2Nc1nccc(-c2sc(C3(C(F)F)CC3)nc2-c2cccc(NS(=O)(=O)c3c(F)cccc3C(F)(F)F)c2F)n1 [Example 128, N-(3-(2-(1-(difluoromethyl)cyclopropyl)-5-(2-(((1R,5S,6r)-3,3-dioxido-3-thiabicyclo[3.1.0]hexan-6-yl)amino)pyrimidin-4-yl)thiazol-4-yl)-2-fluorophenyl)-2-fluoro-6-(trifluoromethyl)-benzenesulfonamide]
17 | 0.04 | CN1CC2CCC(C1)N2c1nc(-c2cccc(NS(=O)(=O)c3c(F)cccc3OC(F)F)c2F)c(-c2ccnc(N[C@H]3[C@@H]4CS(=O)(=O)C[C@@H]43)n2)s1 [Example 122, 2-(difluoromethoxy)-N-(3-(5-(2-(((1R,5S,6r)-3,3-dioxido-3-thiabicyclo[3.1.0]hexan-6-yl)amino)pyrimidin-4-yl)-2-(3-methyl-3,8-diazabicyclo[3.2.1]octan-8-yl)thiazol-4-yl)-2-fluorophenyl)-6-fluorobenzenesulfonamide]
18 | 0.04 | C[C@H]1CN(C)C[C@H](C)N1c1nc(-c2cccc(NS(=O)(=O)c3c(F)cccc3C(F)(F)F)c2F)c(-c2ccnc(N[C@H]3[C@@H]4CS(=O)(=O)C[C@@H]43)n2)s1 [Example 124, N-(3-(5-(2-(((1R,5S,6r)-3,3-dioxido-3-thiabicyclo[3.1.0]hexan-6-yl)amino)pyrimidin-4-yl)-2-((2S,6S)-2,4,6-trimethylpiperazin-1-yl)thiazol-4-yl)-2-fluorophenyl)-2-fluoro-6-(trifluoromethyl)benzenesulfonamide]
19 | 0.03 | O=S1(=O)CC2C(C1)C2Nc1nccc(-c2sc(N3C4CCC3COC4)nc2-c2cccc(NS(=O)(=O)c3c(F)cccc3C(F)(F)F)c2F)n1 (stereo not shown) [Example 112, N-(3-(2-(3-oxa-8-azabicyclo[3.2.1]octan-8-yl)-5-(2-((3,3-dioxido-3-thiabicyclo[3.1.0]hexan-6-yl)amino)pyrimidin-4-yl)thiazol-4-yl)-2-fluorophenyl)-2-fluoro-6-(trifluoromethyl)benzenesulfonamide]
